According to patent US20220184091A1, “Methods of Treating Cancer with Chk1 Inhibitors” (Sierra Oncology, Inc., priority 2019, published 2022):

Assays:
[1] = test system: H524; experiment: Survival of cancer cells after gemcitabine, H524; type: cell-based; details: H524 SCLC in vitro model
Protocol: (§1) SCLC cell lines were incubated with dimethyl sulfoxide (vehicle control), SRA737 or Gemcitabine for 96 hours at nine distinct concentrations, with the maximum dose being 10 μM. A CellTiter-Glo luminescent cell viability assay (Promega) was performed after 96 hours of treatment as per the manufacturer's specifications. IC50 values were estimated using Drexplorer, as previously described (Tong P, Coombes K R, Johnson F M, Byers L A, Diao L, Liu D D, Lee J J, Heymach J V, Wang J. drexplorer: A tool to explore dose-response relationships and drug-drug interactions. Bioinformatics. 2015 May 15; 31(10):1692-4.)

[2] = test system: RPP; experiment: Survival of cancer cells after gemcitabine, RPP; type: cell-based, murine; details: RPP SCLC in vitro model
Protocol: Data presented as mean±SD and p values by t-test ***p<0.001.
as §1

[3] = test system: H209; experiment: Survival of cancer cells after gemcitabine, H209; type: cell-based; details: H209 SCLC in vitro model
Protocol: as §1

[4] = test system: IFNβ, CXCL10 and CCL5; experiment: qPCR of IFNβ, CXCL10 and CCL5 in resected RPP tumors; type: in vivo, mouse; details: RPP tumors resected at Day 21; SRA737 2-days-on/5-days-off
Protocol: Data presented as mean±SD and p values by t-test * p<0.05, **p<0.01, ***p<0.001.
Real-time PCR was done using SYBR Select Master Mix (Life Technologies, cat #4472908) according to the manufacturer's protocol. Primers were purchased from Sigma Aldrich, Inc. Triplicate PCR reactions were run on ABI (7500 Fast Real Time PCR System). The comparative Ct method using the average 2ΔΔCT value for each set of triplicates was used, and the average of the biological replicates was calculated. Negative controls were included for every primer set, and GAPDH was used as the […].

[5] = test system: RPP tumor; experiment: Flank RPP (SCLC) tumor growth in B6129F1 immunocompetent mice; type: in vivo, mouse; details: anti-PD-L1 300 μg 1-day-on/6-days-off; LDG 40 mg/kg 1-day-on/6-days-off; SRA737 100 mg/kg 2-day-on/5-days-off
Protocol: Tumors were evaluated twice weekly for the duration of the study. Tumor volumes were measured on all mice three times per week and calculated (width^2×length×0.4) using manual calipers. Once the average tumor size was in the range of 120-150 mm^3, mice were randomized into dosing groups using stratified sampling by assigning three animals per group for short-term reverse-phase protein array analysis and long-term treatment. Dosing schedules and duration varied depending on the study. Mice were weighed three times per week for the duration of the study, and a decrease in body weight >15% was considered indicative of a toxic dose. The Student t-test was used to determine statistical significance between compound- and vehicle-treated groups.
[…] 15A.

Nc1ccn([C@@H]2O[C@H](CO)[C@@H](O)C2(F)F)c(=O)n1 [gemcitabine]
response of cancer cells to gemcitabine alone [1]: resistant
response of cancer cells to gemcitabine alone [2]: resistant
response of cancer cells to gemcitabine alone [3]: resistant
expression of IFNβ, CCL5 and CXCL10 [4]: Neither LDG nor SRA737 monotherapy (2-days-on/5-days-off) showed any significant effect
anti-tumor effect (tumor volume) [5]: no significant anti-tumor effect
